Reference: ChEMBL document CHEMBL1201862, “PubChem BioAssay data set” (2004)
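All cell lines were grown in 96-well plates and treated with compound for 48 hours. GI50: concentration for 50% inhibition of growth.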 Calls of active or inactive are those of the source. No stated cut-off is given here; in the data, active = GI50 up to about 1.1 µM and inactive = higher.

Assays:
Assay in all cases: NCI anticancer screen, dose series, 48 h
DU-145 = tested on: DU-145
HCC 2998 = tested on: HCC 2998
HCT-15 = tested on: HCT-15
HT-29 = tested on: HT-29
Hs-578T = tested on: Hs-578T
K562 = tested on: K562
M14 = tested on: M14
Malme-3M = tested on: Malme-3M
NCI-H522 = tested on: NCI-H522
NCI/ADR-RES = tested on: NCI/ADR-RES
OVCAR-5 = tested on: OVCAR-5
OVCAR-8 = tested on: OVCAR-8
SF-268 = tested on: SF-268
SF-295 = tested on: SF-295
SK-MEL-28 = tested on: SK-MEL-28
SK-MEL-2 = tested on: SK-MEL-2
SK-MEL-5 = tested on: SK-MEL-5
SK-OV-3 = tested on: SK-OV-3
UACC-62 = tested on: UACC-62

O=C1Oc2ccccc2C(=O)/C1=C/N1C(=O)N/C(=C\c2ccccc2O)C1=O
GI50 (DU-145): 46.3 µM (inactive) | GI50 (HCC 2998): > 57.4 µM (inactive) | GI50 (HCT-15): 39.8 µM | GI50 (HT-29): 54.7 µM (inactive) | GI50 (Hs-578T): > 53.1 µM (inactive) | GI50 (K562): 54.7 µM (inactive) | GI50 (M14): 66.4 µM (inactive) | GI50 (Malme-3M): > 100 µM (inactive) | GI50 (NCI-H522): 55.5 µM (inactive) | GI50 (NCI/ADR-RES): 65.3 µM (inactive) | GI50 (OVCAR-5): > 100 µM (inactive) | GI50 (OVCAR-8): 58.1 µM (inactive) | GI50 (SF-268): > 81.1 µM (inactive) | GI50 (SF-295): > 71 µM (inactive) | GI50 (SK-MEL-28): > 84.9 µM (inactive) | GI50 (SK-MEL-2): > 56.9 µM (inactive) | GI50 (SK-MEL-5): 44.6 µM (inactive) | GI50 (SK-OV-3): > 62.7 µM (inactive) | GI50 (UACC-62): 36.9 µM (inactive)

N=C(N)SCc1cccc(-c2nc3ccccc3c(=O)o2)c1
GI50 (DU-145): > 100 µM (inactive) | GI50 (HCC 2998): > 100 µM (inactive) | GI50 (HCT-15): > 100 µM | GI50 (HT-29): > 100 µM (inactive) | GI50 (Hs-578T): > 100 µM (inactive) | GI50 (K562): > 100 µM (inactive) | GI50 (M14): > 100 µM (inactive) | GI50 (Malme-3M): > 100 µM (inactive) | GI50 (NCI-H522): > 100 µM (inactive) | GI50 (NCI/ADR-RES): > 100 µM (inactive) | GI50 (OVCAR-5): > 100 µM (inactive) | GI50 (OVCAR-8): > 100 µM (inactive) | GI50 (SF-268): > 100 µM (inactive) | GI50 (SF-295): > 100 µM (inactive) | GI50 (SK-MEL-28): > 100 µM (inactive) | GI50 (SK-MEL-2): > 100 µM (inactive) | GI50 (SK-MEL-5): > 100 µM (inactive) | GI50 (SK-OV-3): > 100 µM (inactive) | GI50 (UACC-62): > 100 µM (inactive)

O=C(O)c1nc2ccccc2nc1Nc1ccc(F)cc1
GI50 (DU-145): 33.7 µM (inactive) | GI50 (HCC 2998): 32.1 µM (inactive) | GI50 (HCT-15): 26.7 µM | GI50 (HT-29): 42.1 µM (inactive) | GI50 (Hs-578T): 29.2 µM (inactive) | GI50 (K562): 32.1 µM (inactive) | GI50 (M14): 25.5 µM (inactive) | GI50 (Malme-3M): 37.9 µM (inactive) | GI50 (NCI-H522): 25.1 µM (inactive) | GI50 (NCI/ADR-RES): 36.8 µM (inactive) | GI50 (OVCAR-5): 56.4 µM (inactive) | GI50 (OVCAR-8): 38.9 µM (inactive) | GI50 (SF-268): 22.9 µM (inactive) | GI50 (SF-295): 24 µM (inactive) | GI50 (SK-MEL-28): 36.4 µM (inactive) | GI50 (SK-MEL-2): 26.9 µM (inactive) | GI50 (SK-MEL-5): 21.6 µM (inactive) | GI50 (UACC-62): 27.2 µM (inactive)

CC1=NN(C(=O)CSc2nnc(SCC(=O)N3N=C(C)CC3(O)c3ccccc3)s2)C(O)(c2ccccc2)C1 (stereo not drawn)
GI50 (DU-145): 35.5 µM (inactive) | GI50 (HCC 2998): > 100 µM (inactive) | GI50 (HCT-15): 33.2 µM | GI50 (Hs-578T): 36.3 µM (inactive) | GI50 (K562): 32.6 µM (inactive) | GI50 (M14): 16.1 µM (inactive) | GI50 (Malme-3M): 99.1 µM (inactive) | GI50 (NCI-H522): 29.6 µM (inactive) | GI50 (NCI/ADR-RES): 27.9 µM (inactive) | GI50 (OVCAR-5): 82.4 µM (inactive) | GI50 (OVCAR-8): 26.9 µM (inactive) | GI50 (SF-268): 12.8 µM (inactive) | GI50 (SF-295): 42 µM (inactive) | GI50 (SK-MEL-28): > 100 µM (inactive) | GI50 (SK-MEL-2): 29.2 µM (inactive) | GI50 (SK-MEL-5): 28.2 µM (inactive) | GI50 (SK-OV-3): > 100 µM (inactive) | GI50 (UACC-62): 18.6 µM (inactive)

COC(=O)C#Cc1ccc([N+](=O)[O-])cc1
GI50 (DU-145): 1.76 µM (inactive) | GI50 (HCC 2998): 1.76 µM (inactive) | GI50 (HCT-15): 0.502 µM | GI50 (HT-29): 1.6 µM (inactive) | GI50 (Hs-578T): 2.84 µM (inactive) | GI50 (K562): 2.47 µM (inactive) | GI50 (M14): 2.05 µM (inactive) | GI50 (Malme-3M): 2.27 µM (inactive) | GI50 (NCI-H522): 1.75 µM (inactive) | GI50 (NCI/ADR-RES): 2.87 µM (inactive) | GI50 (OVCAR-5): 2.16 µM (inactive) | GI50 (OVCAR-8): 2.55 µM (inactive) | GI50 (SF-268): 4.16 µM (inactive) | GI50 (SF-295): 4.24 µM (inactive) | GI50 (SK-MEL-28): 1.96 µM (inactive) | GI50 (SK-MEL-2): 3.69 µM (inactive) | GI50 (SK-MEL-5): 2.4 µM (inactive) | GI50 (SK-OV-3): 8.32 µM (inactive) | GI50 (UACC-62): 2.69 µM (inactive)

COc1cc(S(=O)(=O)Nc2ccc(-c3csc(/N=C\c4cccs4)n3)cc2)ccc1Cl
GI50 (DU-145): 29.4 µM (inactive) | GI50 (HCC 2998): 29.4 µM (inactive) | GI50 (HCT-15): > 100 µM | GI50 (HT-29): 57.1 µM (inactive) | GI50 (Hs-578T): 68.2 µM (inactive) | GI50 (K562): 42.9 µM (inactive) | GI50 (M14): 61.8 µM (inactive) | GI50 (Malme-3M): 78 µM (inactive) | GI50 (NCI-H522): 32.4 µM (inactive) | GI50 (NCI/ADR-RES): > 100 µM (inactive) | GI50 (OVCAR-5): > 100 µM (inactive) | GI50 (OVCAR-8): 87.5 µM (inactive) | GI50 (SF-268): 33.7 µM (inactive) | GI50 (SF-295): > 100 µM (inactive) | GI50 (SK-MEL-28): 35.9 µM (inactive) | GI50 (SK-MEL-2): 96.6 µM (inactive) | GI50 (SK-MEL-5): 42.3 µM (inactive) | GI50 (SK-OV-3): > 100 µM (inactive) | GI50 (UACC-62): 23.3 µM (inactive)

O=c1cc(NNc2ccccc2F)[nH]c(=O)[nH]1
GI50 (DU-145): 43.3 µM (inactive) | GI50 (HCC 2998): 17.9 µM (inactive) | GI50 (HCT-15): 16 µM | GI50 (HT-29): 17.9 µM (inactive) | GI50 (Hs-578T): 21.9 µM (inactive) | GI50 (K562): 21.8 µM (inactive) | GI50 (M14): 17.7 µM (inactive) | GI50 (Malme-3M): 18.8 µM (inactive) | GI50 (NCI-H522): 16.2 µM (inactive) | GI50 (NCI/ADR-RES): 16.6 µM (inactive) | GI50 (OVCAR-5): 19.5 µM (inactive) | GI50 (SF-268): 19.4 µM (inactive) | GI50 (SK-MEL-28): 20.5 µM (inactive) | GI50 (SK-MEL-2): 16.7 µM (inactive) | GI50 (SK-MEL-5): 22.3 µM (inactive) | GI50 (SK-OV-3): 21.1 µM (inactive) | GI50 (UACC-62): 17.1 µM (inactive)

CC(=O)NN/C=N/C(C#N)=C(\N)C#N
GI50 (DU-145): > 100 µM (inactive) | GI50 (HCC 2998): > 100 µM (inactive) | GI50 (HCT-15): > 100 µM | GI50 (HT-29): > 100 µM (inactive) | GI50 (Hs-578T): > 100 µM (inactive) | GI50 (K562): > 100 µM (inactive) | GI50 (M14): > 100 µM (inactive) | GI50 (Malme-3M): > 100 µM (inactive) | GI50 (NCI-H522): > 100 µM (inactive) | GI50 (NCI/ADR-RES): > 100 µM (inactive) | GI50 (OVCAR-5): > 100 µM (inactive) | GI50 (OVCAR-8): > 100 µM (inactive) | GI50 (SF-268): > 100 µM (inactive) | GI50 (SF-295): > 100 µM (inactive) | GI50 (SK-MEL-28): > 100 µM (inactive) | GI50 (SK-MEL-2): > 100 µM (inactive) | GI50 (SK-MEL-5): > 100 µM (inactive) | GI50 (SK-OV-3): > 100 µM (inactive) | GI50 (UACC-62): > 100 µM (inactive)
